Results taken from US20240368049A1, “ENHANCED PHYTOREMEDIATION FROM BIOAVAILABILITY OF PER- AND POLYFLUOROALKYL SUBSTANCES IN CONTAMINATED SOIL” (The Research Foundation for the State University of New York, priority 2023, published 2024).

Key:
[1] = SPLP (EPA method 1312) leachability of PFAS in biosolids amended soil; assay type: physicochemical; conditions: for percentage of SPLP leachable PFAS in biosolids amended soil: without a sorbent, Day-80, pH 4.2
Procedure: PFAS in the freeze-dried timothy-grass shoots were extracted by MTBE-NaOH according to a previously developed method. Before extraction, each sample for extraction was spiked with 10 ng of 13C2-PFHxA as the surrogate for determining the extraction efficiency. EPA method 1312 (Synthetic Precipitation Leaching Procedure, SPLP) was performed on the biosolids amended soil after drying to determine the leachability of PFAS. Briefly, 20 mL of H2SO4/HNO3 reagent (60/40 wt/wt.) at pH=4.2 were added to the soil sample. The soil with the H2SO4/HNO3 reagent was then vortexed for 30s and shaken on an end over end mixer overnight. After centrifugation at 3500 g for 30 min, the supernatant was collected and subject to solid phase extraction (SPE) using HyperSep C18 cartridges (Thermo Scientific, Waltham, MA). The SPLP leachable PFAS on the C18 cartridges were eluted with 2 mL of methanol, followed by 2 mL of 0.1% NH40H amended methanol. The SPLP leachable PFAS in clean soil without biosolids amendment were analyzed as well. PFAS in the final plant extracts and SPLP leachates were quantified using a 1290 Infinity II LC system coupled with a 6470 Triple Quad Mass Spectrometer (LC-MS/MS, Agilent Technologies, Santa Clara, CA, USA).
FIG. 3 is a series of graphs 40 of percentages of leachable PFAS in biosolids-amended soil treated by different sorbents on Day-80 (n=3). Different letters represent significant differences among the treatments (p<0.05). […] Without a sorbent, almost 100% of leaching of PFHxA 42, PFHpA 44 and PFOA 46 was observed. Similarly to PFAS uptake by the shoots, a chain length effect was visible: the shorter the carbon chain of PFAS, the higher the leachability. […] Compared to PFAS concentrations in the shoots (FIG. 1), there was no positive correlation between acidic water leachable PFAS and the extent of shoot uptake for treatment with biochar at both doses and RemBind at the dose of 0.2%. Thus, results from SPLP at pH=4.2 for sites east of the Mississippi River may not be able to predict bioavailable PFAS to the studied grass. The SPLP is an established and widely adopted EPA method for investigating leaching of organic contaminants in soil. One should note that the acidic water used in the leaching procedure may actually decrease PFAS leaching due to the acidic nature of PFAAs. But since the focus here was to evaluate the effect of different sorbents toward stabilizing PFAS in soil amended by biosolids, the SPLP served our purpose well.

[2] = tested on: timothy-grass (Phleum pratense); assay: chlorophyll content of timothy-grass shoots; assay type: in vivo; conditions: mobilization treatment with SDS
Procedure: Timothy-grass seeds were purchased from OrOlam LLC (South Miami, FL). One gram of seeds was sown evenly in each tank containing the prepared biosolids amended soil. Enough water was then added to each tank to reach 100% of field capacity. The plants were cultivated in a greenhouse and watered every day. The timothy-grass started germinating on the 5th day after sowing. On Day-40 after seed germination, the above-ground shoots of the grass in each tank were cut and rinsed thoroughly using deionized water. Around 1 g of the plant tissues from each treatment was used for chlorophyll extraction and quantification. The remaining plant shoots were freeze-dried at −37° C. for 48 h and subject to PFAS extraction and analysis. The plants after cutting were kept under the same growth condition. On Day-80 after seed germination or day-40 after the first cut, the plant shoots were removed again and subject to chlorophyll and PFAS analysis. […]
On Day-40 and Day-80 after seed germination, 100 mg of fresh grass leaves were collected and used to quantify chlorophyll content. […] After 48 h, the chlorophyll concentration in the solvent was determined using a UV-Vis spectrophotometer (GENESYS 10S, Thermo Fisher Scientific, altham, MA, USA). The absorbance was read at 664 and 647 nm and used to calculate chlorophyll a and b and total chlorophyll content according to these equations: […]

[3] = tested on: timothy-grass (Phleum pratense); assay: uptake of PFAS by timothy-grass shoots grown in biosolids-amended soil treated by a sorbent or SDS; assay type: in vivo
From the text: The method uses the addition of a mobilizing reagent, at a predetermined dose as described herein, to amend the soil around a root system of one or more plants. The supplementing of the amended soil with a stabilizing reagent at a predetermined dose, as also defined below. In one embodiment, the preparation of biosolids amended soil uses a sandy loam soil used in this study (pH=7.56), which was collected from a local farm in Albany County, New York. The soil was passed through a 2-mm sieve before use. The contents of natural organic matter and total organic carbon of the sieved soil were 4.82±0.12% and 2.44±0.45%, respectively. The sieved soil was mixed with vermiculite in a 1:1 vol ratio for increasing water retention of the soil and improving soil aeration. Then, the processed soil for plant cultivation was distributed to 7-quart polypropylene containers (14.375″L×8.25″W×6″H). Each container had 1.3 kg of dry soil.
The biosolids after anaerobic digestion of sludge were collected from a nearby wastewater treatment plant close to University at Albany. The total solid and total organic carbon of the biosolids were 24.16±0.21% and 28.64±0.28%, respectively. […]
Timothy-grass seeds were purchased from OrOlam LLC (South Miami, FL). […] Around 1 g of the plant tissues from each treatment was used for chlorophyll extraction and quantification. […]

Row | Compound | percentage of SPLP leachable PFAS in biosolids amended soil [1] [%] | effect on chlorophyll content in timothy-grass [2] | effect on uptake of PFAS by the shoots ([3]; SDS 100 mg/kg, Day-40, exceptions PFOA and PFOS) | effect on ΣPFAS uptake by the shoots ([3]; SDS, all three doses (10, 50, 100 mg/kg), Day-80) | effect on acidic water leachable PFAS in biosolids amended soil ([1]; SDS at a dose up to 100 mg/kg)
1 | O=C(O)C(F)(F)C(F)(F)C(F)(F)C(F)(F)C(F)(F)C(F)(F)F [PFHpA, perfluoroheptanoic acid] | ~100 | – | – | – | –
2 | O=C(O)C(F)(F)C(F)(F)C(F)(F)C(F)(F)C(F)(F)F [PFHxA, perfluorohexanoic acid] | ~100 | – | – | – | –
3 | O=C(O)C(F)(F)C(F)(F)C(F)(F)C(F)(F)C(F)(F)C(F)(F)C(F)(F)F [PFOA, perfluorooctanoic acid] | ~100 | – | – | – | –
4 | CCCCCCCCCCCCOS(=O)(=O)[O-].[Na+] [SDS, sodium dodecyl sulphate] | – | did not change the chlorophyll content | significantly higher uptake of PFAS | significantly higher PFAS uptake | did not significantly increase
